Assay [1] concerns the target recombinant human Mcl-1 (residues 171-327) / Bim interaction (Homo sapiens (Human), UniProt Q07820). Kind of assay: biochemical. The settings on record: read-out: Mcl-1 HTRF IC50. It is filed as binding.
The test system of assay [2] is human multiple myeloma cell line, OPM-2. The experiment in a line: Cell viability assay (OPM-2 10 FBS), CellTiter-Glo. Type of assay: cell-based. The gist of the method: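 IC50 values come from 4-parameter logistic fits of luminescence signals reflecting cell viability. Treatment lasted 16 h at 37 °C in complete medium with 10% FBS, starting from 3000 cells/well.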

[3] abbreviates: 0.1 nM Mcl-1(171-327), 0.05 nM biotin-Bim (51-76).
The mark [4] stands for this setting: Homo sapiens, OPM-2, 16 h, read-out: OPM-2 10% FBS IC50 IP, OPM-2 cells, 10% FBS, 16 h incubation.
Where [5] appears, read: TR-FRET, Mcl-1(171-327) / biotin-Bim (51-76).
Where [6] appears, read: read-out: OPM-2 10% FBS IC50 IP, OPM-2 cells, 10% FBS, 16 h, CellTiter-Glo.
Where [7] appears, read: Homo sapiens, OPM-2, 16 h, read-out: OPM-2 10% FBS IC50 IP, OPM-2 cells, 10% FBS, 16 h, CellTiter-Glo.

Molecules are shown by their SMILES. Where two headings read alike, the source gives them in different places.

recombinant human Mcl-1 (residues 171-327) / Bim interaction, sequence (Q07820 171-327): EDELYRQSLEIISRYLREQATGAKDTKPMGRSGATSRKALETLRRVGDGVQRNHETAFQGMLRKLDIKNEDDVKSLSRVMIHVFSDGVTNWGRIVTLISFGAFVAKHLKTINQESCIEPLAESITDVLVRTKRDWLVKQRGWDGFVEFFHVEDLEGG

On to `CO[C@@]1(CN2CCN(Cc3nc(C)c(C)o3)CC2)/C=C/C[C@H](C)[C@@H](C)S(=O)(=O)NC(=O)c2ccc3c(c2)N(C[C@@H]2CC[C@H]21)C[C@@]1(CCCc2cc(Cl)ccc21)CO3` [Example 322, (1S,3′R,6′R,7′S,8′E,11′S,12′R)-6-chloro-7′-((4-((4,5-dimethyl-1,3-oxazol-2-yl)methyl)-1-piperazinyl)methyl)-7′-methoxy-11′,12′-dimethyl-3,4-dihydro-2H,15′H-spiro[naphthalene-1,22′-[20]oxa[13]thia[1,14]diazatetracyclo [14.7.2.0~3,6~.0~19,24~]pentacosa[8,16,18,24]tetraen]-15′-one 13′,13′-dioxide], for which the half-maximal inhibitory concentration (IC50) in assay [1] (setting [3]) amounted to 0.145 nM; in assay [2] (setting [4]), 87 nM.

Turning to `C[C@@H]1[C@@H](C)CCC[C@@](O)([C@@H]2CCN(C)C2=O)[C@@H]2CC[C@H]2CN2C[C@@]3(CCCc4cc(Cl)ccc43)COc3ccc(cc32)C(=O)NS1(=O)=O` [Example 100204, (1S,3′R,6′R,7′S,11′S,12′R)-6-chloro-7′-hydroxy-11′,12′-dimethyl-7′-((3S)-1-methyl-2-oxo-3-pyrrolidinyl)-3,4-dihydro-2H,15′H-spiro[naphthalene-1,22′-[20]oxa[13]thia[1,14]diazatetracyclo [14.7.2.0~3,6~.0~19,24~]pentacosa[16,18,24]trien]-15′-one 13′,13′-dioxide], the figures for the IC50 in assay [1] (setting [5]) and in assay [2] (setting [6]) were 1.66 nM and 5270 nM, respectively.

As to `C[C@@H]1[C@@H](C)C/C=C/[C@](O)(c2nc(CO)nn2C)[C@@H]2CC[C@H]2CN2C[C@@]3(CCCc4cc(Cl)ccc43)COc3ccc(cc32)C(=O)NS1(=O)=O` [Example 100201, (1S,3′R,6′R,7′R,8′E,11′S,12′R)-6-chloro-7′-hydroxy-7′-(3-(hydroxymethyl)-1-methyl-1H-1,2,4-triazol-5-yl)-11′,12′-dimethyl-3,4-dihydro-2H,15′H-spiro[naphthalene-1,22′-[20]oxa[13]thia[1,14]diazatetracyclo [14.7.2.0~3,6~.0~19,24~]pentacosa[8,16,18,24]tetraen]-15′-one 13′,13′-dioxide], the IC50 stood at 0.086 nM in assay [1] (setting [5]) and 307 nM in assay [2] (setting [7]).

With `CO[C@@]1(C)/C=C/C[C@H](C)[C@@H](CCOS(C)(=O)=O)S(=O)(=O)NC(=O)c2ccc3c(c2)N(C[C@@H]2CC[C@H]21)C[C@@]1(CCCc2cc(Cl)ccc21)CO3` (single isomer, unassigned) [Example 100598], the IC50 in assay [1] (setting [5]) came to 0.077 nM; in assay [2] (setting [6]), 188 nM.

As for `C[C@@H]1[C@@H](C)CCCC(CO)(CO)[C@@H]2CC[C@H]2CN2C[C@@]3(CCCc4cc(Cl)ccc43)COc3ccc(cc32)C(=O)NS1(=O)=O` [Example 100342, (1S,3′R,6′R,11′S,12′R)-6-chloro-7′,7′-bis(hydroxymethyl)-11′,12′-dimethyl-3,4-dihydro-2H,15′H-spiro[naphthalene-1,22′-[20]oxa[13]thia[1,14]diazatetracyclo [14.7.2.0~3,6~.0~19,24~]pentacosa[16,18,24]trien]-15′-one 13′,13′-dioxide], the IC50 in assay [1] (setting [5]) came out at 1.69 nM; in assay [2] (setting [7]), 782 nM.

On to `C[C@@H]1[C@@H](C)CCC[C@@](O)(Cc2ccncn2)[C@@H]2CC[C@H]2CN2C[C@@]3(CCCc4cc(Cl)ccc43)COc3ccc(cc32)C(=O)NS1(=O)=O` [Example 100113, (1S,3′R,6′R,7′R,11′S,12′R)-6-chloro-7′-hydroxy-11′,12′-dimethyl-7′-(4-pyrimidinylmethyl)-3,4-dihydro-2H,15′H-spiro[naphthalene-1,22′-[20]oxa[13]thia[1,14]diazatetracyclo [14.7.2.0~3,6~.0~19,24~]pentacosa[16,18,24]trien]-15′-one 13′,13′-dioxide], for which the concentration for half-maximal inhibition (IC50) in assay [1] (setting [5]) came out at 0.182 nM; in assay [2] (setting [6]) it was 70 nM.

On to `C[C@@H]1[C@@H](C)CCC[C@@](O)(CCN2CC(F)(F)C2)[C@@H]2CC[C@H]2CN2C[C@@]3(CCCc4cc(Cl)ccc43)COc3ccc(cc32)C(=O)NS1(=O)=O` [Example 100093, (1S,3′R,6′R,7′R,11′S,12′R)-6-chloro-7′-(2-(3,3-difluoro-1-azetidinyl)ethyl)-7′-hydroxy-11′,12′-dimethyl-3,4-dihydro-2H,15′H-spiro[naphthalene-1,22′-[20]oxa[13]thia[1,14]diazatetracyclo [14.7.2.0~3,6~.0~19,24~]pentacosa[16,18,24]trien]-15′-one 13′,13′-dioxide], for which the half-inhibitory concentration (IC50) in assay [1] (setting [5]) turned out to be 0.291 nM; in assay [2] (setting [6]) it was 554 nM.

Take `C[C@@H]1[C@@H](C)C/C=C/[C@@](O)(C#CCCN(C)C)[C@@H]2CC[C@H]2CN2C[C@@]3(CCCc4cc(Cl)ccc43)COc3ccc(cc32)C(=O)NS1(=O)=O` [Example 100309, (1S,3′R,6′R,7′S,8′E,11′S,12′R)-6-chloro-7′-(4-(dimethylamino)-1-butyn-1-yl)-7′-hydroxy-11′,12′-dimethyl-3,4-dihydro-2H,15′H-spiro[naphthalene-1,22′-[20]oxa[13]thia[1,14]diazatetracyclo [14.7.2.0~3,6~.0~19,24~]pentacosa[8,16,18,24]tetraen]-15′-one 13′,13′-dioxide]: the figures for the 50% inhibitory concentration (IC50) in assay [1] (setting [5]) and in assay [2] (setting [6]) were 0.244 nM and 385 nM, respectively.

For `CO[C@]1(CN2C[C@@H](C)N[C@@H](C)C2)/C=C/C[C@H](C)[C@@H](C)S(=O)(=O)NC(=O)c2ccc3c(c2)N(C[C@@H]2CC[C@H]21)C[C@@]1(CCCc2cc(Cl)ccc21)CO3` [Example 329, (1S,3′R,6′R,7′R,8′E,11′S,12′R)-6-chloro-7′-(((3R,5S)-3,5-dimethyl-1-piperazinyl)methyl)-7′-methoxy-11′,12′-dimethyl-3,4-dihydro-2H,15′H-spiro[naphthalene-1,22′-[20]oxa[13]thia[1,14]diazatetracyclo [14.7.2.0~3,6~.0~19,24~]pentacosa[8,16,18,24]tetraen]-15′-one 13′,13′-dioxide], the values for the IC50 in assay [1] (setting [3]) and in assay [2] (setting [4]) were 0.137 nM and 243 nM, respectively.

Regarding `CCOCCN1CCN(C[C@]2(OC)/C=C/C[C@H](C)[C@@H](C)S(=O)(=O)NC(=O)c3ccc4c(c3)N(C[C@@H]3CC[C@H]32)C[C@@]2(CCCc3cc(Cl)ccc32)CO4)CC1` [Example 303, (1S,3′R,6′R,7′S,8′E,11′S,12′R)-6-chloro-7′-((4-(2-ethoxyethyl)-1-piperazinyl)methyl)-7′-methoxy-11′,12′-dimethyl-3,4-dihydro-2H,15′H-spiro[naphthalene-1,22′-[20]oxa[13]thia[1,14]diazatetracyclo [14.7.2.0~3,6~.0~19,24~]pentacosa[8,16,18,24]tetraen]-15′-one 13′,13′-dioxide], the half-inhibitory concentration (IC50) in assay [1] (setting [3]) was determined as 0.15 nM; in assay [2] (setting [4]), 101 nM.

As for `C[C@@H]1[C@@H](C)C/C=C/[C@@](O)(C#CCCN(C)C)[C@@H]2CC[C@H]2CN2C[C@@]3(CCCc4cc(Cl)ccc43)COc3ccc(cc32)C(=O)NS1(=O)=O` [Example 100308, (1S,3′R,6′R,7′S,8′E,11′S,12′R)-6-chloro-7′-(4-(dimethylamino)-1-butyn-1-yl)-7′-hydroxy-11′,12′-dimethyl-3,4-dihydro-2H,15′H-spiro[naphthalene-1,22′-[20]oxa[13]thia[1,14]diazatetracyclo [14.7.2.0~3,6~.0~19,24~]pentacosa[8,16,18,24]tetraen]-15′-one 13′,13′-dioxide], the results for the IC50 in assay [1] (setting [5]) and in assay [2] (setting [6]) were 0.033 nM and 1170 nM, respectively.

`C[C@@H]1[C@@H](C)CCC[C@@](O)(c2cccnc2)[C@@H]2CC[C@H]2CN2C[C@@]3(CCCc4cc(Cl)ccc43)COc3ccc(cc32)C(=O)NS1(=O)=O` [Example 100185, (1S,3′R,6′R,7′S,11′S,12′R)-6-chloro-7′-hydroxy-11′,12′-dimethyl-7′-(3-pyridinyl)-3,4-dihydro-2H,15′H-spiro[naphthalene-1,22′-[20]oxa[13]thia[1,14]diazatetracyclo [14.7.2.0~3,6~.0~19,24~]pentacosa[16,18,24]trien]-15′-one 13′,13′-dioxide]: the figures for the half-inhibitory concentration (IC50) in assay [1] and in assay [2] (setting [7]) were 8.88 nM and 5130 nM, respectively.

In the case of `CO[C@@]1(CN2CCN(CC(F)(F)F)CC2)/C=C/C[C@H](C)[C@@H](C)S(=O)(=O)NC(=O)c2ccc3c(c2)N(C[C@@H]2CC[C@H]21)C[C@@]1(CCCc2cc(Cl)ccc21)CO3` [Example 248, (1S,3′R,6′R,7′S,8′E,11′S,12′R)-6-chloro-7′-methoxy-11′,12′-dimethyl-7′-((4-(2,2,2-trifluoroethyl)-1-piperazinyl)methyl)-3,4-dihydro-2H,15′H-spiro[naphthalene-1,22′-[20]oxa[13]thia[1,14]diazatetracyclo [14.7.2.0~3,6~.0~19,24~]pentacosa[8,16,18,24]tetraen]-15′-one 13′,13′-dioxide], the IC50 was 0.222 nM in assay [1] (setting [3]) and 518 nM in assay [2] (setting [4]).

In the case of `CCO[C@@]1(CN2CCN(C3COC3)CC2)/C=C/C[C@H](C)[C@@H](C)S(=O)(=O)NC(=O)c2ccc3c(c2)N(C[C@@H]2CC[C@H]21)C[C@@]1(CCCc2cc(Cl)ccc21)CO3` [Example 106, (1S,3′R,6′R,7′S,8′E,11′S,12′R)-6-chloro-7′-ethoxy-11′12′-dimethyl-7′-((4-(3-oxetanyl)-1-piperazinyl)methyl)-3,4-dihydro-2H,15′H-spiro[naphthalene-1,22′-[20]oxa[13]thia[1,14]diazatetracyclo [14.7.2.0~3,6~.0~19,24~]pentacosa[8,16,18,24]tetraen]-15′-one 13′,13′-dioxide], the IC50 in assay [1] (setting [3]) worked out at 0.299 nM; in assay [2] (setting [4]), 308 nM.
